Laboratory results reported in US20160193219A1, “SUBSTITUTED 2,3-DIHYDROIMIDAZO[1,2-C]QUINAZOLINE SALTS” (priority 2011, published 2016).
Where two headings read alike, the source gives them in different places.

What was measured:
[1] = Stability as solid (stored at 90° C. for 1 week, HPLC); type: physicochemical
PC3 = experiment: Proliferation assay (Cell Titer-Glo, 72 h), PC3; conditions: Homo sapiens, PC-3, 72 h, PC3, Prostate
KPL4 = experiment: Proliferation assay (Cell Titer-Glo, 72 h), KPL4; conditions: KPL4, 72 h
T47D = experiment: Proliferation assay (Cell Titer-Glo, 72 h), T47D; conditions: Breast, listed as free base
BT20 = experiment: Proliferation assay (Cell Titer-Glo, 72 h), BT20; conditions: BT20, Breast, listed as free base
MCF7 = experiment: Proliferation assay (Cell Titer-Glo, 72 h), MCF7; conditions: MCF7, Breast, listed as free base
HT29 = experiment: Proliferation assay (Cell Titer-Glo, 72 h), HT29; conditions: HT29, Colon, listed as free base
A549 = experiment: Proliferation assay (Cell Titer-Glo, 72 h), A549; conditions: Homo sapiens, A549, 72 h, A549, Lung
H460 = experiment: Proliferation assay (Cell Titer-Glo, 72 h), H460; conditions: Homo sapiens, NCI-H460, 72 h, H460, Lung
786O = experiment: Proliferation assay (Cell Titer-Glo, 72 h), 786O; conditions: Kidney, listed as free base
BT474 = experiment: Proliferation assay (Cell Titer-Glo, 72 h), BT474; conditions: Homo sapiens, BT-474, 72 h, BT474, Breast
LNCaP = experiment: Proliferation assay (Cell Titer-Glo, 72 h), LNCaP; conditions: Homo sapiens, 72 h, Prostate
U87MG = experiment: Proliferation assay (Cell Titer-Glo, 72 h), U87MG; conditions: Homo sapiens, U-87 MG
HCT116 = experiment: Proliferation assay (Cell Titer-Glo, 72 h), HCT116; conditions: Homo sapiens, HCT-116, 72 h, HCT116, Colon
SK-Br-3 = experiment: Proliferation assay (Cell Titer-Glo, 72 h), SK-Br-3; conditions: Homo sapiens, SK-BR-3, 72 h, SK-Br-3, Breast
Colo205 = experiment: Proliferation assay (Cell Titer-Glo, 72 h), Colo205; conditions: Colo205, Colon, listed as free base
MDA-MB-468 = experiment: Proliferation assay (Cell Titer-Glo, 72 h), MDA-MB-468; conditions: MDA-MB-468, Breast, listed as free base

COc1c(OCCCN2CCOCC2)ccc2c1N=C(NC(=O)c1cnc(N)nc1)N1CCN=C21 [compound of formula (I), 2-amino-N-[7-methoxy-8-(3-morpholin-4-ylpropoxy)-2,3-dihydroimidazo[1,2-c]quinazolin-5-yl]pyrimidine-5-carboxamide]
stability in solid form [1]: stable in solid form | therm. stab. solid ([1]; 1 w @ 90° C.): ++ | Appearance (0.1M HCl, 1 week, 25° C.): slightly colored solution | Organic impurities, single (0.1M HCl, 1 week, 25° C.): 7.15 Area % | Organic impurities, sum of all (0.1M HCl, 1 week, 25° C.): 24.27 Area % | Appearance (0.1M HCl, 1 week, 70° C.): slightly colored solution | Organic impurities, single (0.1M HCl, 1 week, 70° C.): 25.48 Area % | Organic impurities, sum of all (0.1M HCl, 1 week, 70° C.): 100.00 Area % | Appearance (0.1M HCl, 24 h, 25° C.): slightly colored solution | Organic impurities, single (0.1M HCl, 24 h, 25° C.): 1.90 Area % | Organic impurities, sum of all (0.1M HCl, 24 h, 25° C.): 8.75 Area % | Appearance (0.1M HCl, 24 h, 70° C.): slightly colored solution | Organic impurities, single (0.1M HCl, 24 h, 70° C.): 22.82 Area % | Organic impurities, sum of all (0.1M HCl, 24 h, 70° C.): 92.49 Area % | Appearance (0.1M HCl, Initial): slightly colored solution | Organic impurities, single (0.1M HCl, Initial): 1.13 Area % | Organic impurities, sum of all (0.1M HCl, Initial): 5.87 Area % | Appearance (0.1M NaOH, 1 week, 25° C.): slightly colored solution | Organic impurities, single (0.1M NaOH, 1 week, 25° C.): 22.03 Area % | Organic impurities, sum of all (0.1M NaOH, 1 week, 25° C.): 86.64 Area % | Appearance (0.1M NaOH, 1 week, 70° C.): slightly colored solution | Organic impurities, single (0.1M NaOH, 1 week, 70° C.): 32.63 Area % | Organic impurities, sum of all (0.1M NaOH, 1 week, 70° C.): 99.90 Area % | Appearance (0.1M NaOH, 24 h, 25° C.): slightly colored solution | Organic impurities, single (0.1M NaOH, 24 h, 25° C.): 10.02 Area % | Organic impurities, sum of all (0.1M NaOH, 24 h, 25° C.): 45.40 Area % | Appearance (0.1M NaOH, 24 h, 70° C.): slightly colored solution | Organic impurities, single (0.1M NaOH, 24 h, 70° C.): 23.94 Area % | Organic impurities, sum of all (0.1M NaOH, 24 h, 70° C.): 99.88 Area % | Appearance (0.1M NaOH, Initial): slightly colored solution | Organic impurities, single (0.1M NaOH, Initial): 6.51 Area % | Organic impurities, sum of all (0.1M NaOH, Initial): 30.72 Area % | Appearance (Buffer pH 7, 1 week, 25° C.): slightly colored turbid | Organic impurities, single (Buffer pH 7, 1 week, 25° C.): 0.82 Area % | Organic impurities, sum of all (Buffer pH 7, 1 week, 25° C.): 4.85 Area % | Appearance (Buffer pH 7, 1 week, 70° C.): slightly colored solution | Organic impurities, single (Buffer pH 7, 1 week, 70° C.): 39.01 Area % | Organic impurities, sum of all (Buffer pH 7, 1 week, 70° C.): 97.65 Area % | Appearance (Buffer pH 7, 24 h, 25° C.): slightly colored turbid | Organic impurities, single (Buffer pH 7, 24 h, 25° C.): 0.20 Area % | Organic impurities, sum of all (Buffer pH 7, 24 h, 25° C.): 3.22 Area % | Appearance (Buffer pH 7, 24 h, 70° C.): slightly colored solution | Organic impurities, single (Buffer pH 7, 24 h, 70° C.): 23.25 Area % | Organic impurities, sum of all (Buffer pH 7, 24 h, 70° C.): 56.06 Area % | Appearance (Buffer pH 7, Initial): slightly colored turbid | Organic impurities, single (Buffer pH 7, Initial): 0.23 Area % | Organic impurities, sum of all (Buffer pH 7, Initial): 3.15 Area % | Appearance (Water, 1 week, 25° C.): slightly colored solution | Organic impurities, single (Water, 1 week, 25° C.): 0.54 Area % | Organic impurities, sum of all (Water, 1 week, 25° C.): 5.33 Area % | Appearance (Water, 1 week, 70° C.): slightly colored solution | Organic impurities, single (Water, 1 week, 70° C.): 45.44 Area % | Organic impurities, sum of all (Water, 1 week, 70° C.): 98.59 Area % | Appearance (Water, 24 h, 25° C.): slightly colored solution | Organic impurities, single (Water, 24 h, 25° C.): 0.23 Area % | Organic impurities, sum of all (Water, 24 h, 25° C.): 3.43 Area % | Appearance (Water, 24 h, 70° C.): slightly colored solution | Organic impurities, single (Water, 24 h, 70° C.): 25.89 Area % | Organic impurities, sum of all (Water, 24 h, 70° C.): 58.00 Area % | Appearance (Water, Initial): slightly colored solution | Organic impurities, single (Water, Initial): 0.25 Area % | Organic impurities, sum of all (Water, Initial): 2.79 Area % | IC50 (PC3): 100 nM | IC50 (KPL4): 3 nM | IC50 (T47D): 6 nM | IC50 (BT20): 6 nM | IC50 (MCF7): 27 nM | IC50 (HT29): 27 nM | IC50 (A549): 37 nM | IC50 (H460): 46 nM | IC50 (786O): 116 nM | IC50 (BT474): 5 nM | IC50 (LNCaP): 69 nM | IC50 (U87MG): 85 nM | IC50 (HCT116): 56 nM | IC50 (SK-Br-3): 2 nM | IC50 (Colo205): 48 nM | IC50 (MDA-MB-468): 760 nM
